Assay results as given in PMC8842310 (Journal of Medicinal Chemistry, 2022).

Test system: CDI iCell cardiomyocytes
Conditions: geometric mean of the MEC values for beat period, Na+ slope, Na+ amplitude, field duration

For `CCNC(=N)NC(=O)Nc1c(CC)cc(NS(=O)(=O)c2ccccc2)cc1CC` [5n, N-(3,5-Diethyl-4-(3-(N-ethylcarbamimidoyl)ureido)phenyl)benzenesulfonamide], the “MEC Gmean cardiomyocytes” value was 8.9 µM.
